Tests used:
[1] = patients on cytostatic therapy; cited from earlier work
PRV-1 gene expression = settings: in vivo; cited from earlier work
PV = settings: patients with PV; cited from earlier work
[2] = system: JAK2^V617F positive Polycythemia Vera; assay: Phase II study of ITF2357 in combination with N-hydroxyurea in Polycythemia Vera; format: in vivo, human
From the text: A multicentre, randomized, open-label, phase II study testing Givinostat-Hydrochloride-Monohydrate (ITF2357) in combination with N-hydroxyurea (HU) in Polycythemia Vera (PV).
Population in the study: 44 patients of both genders with an established diagnosis of JAK2^V617F positive PV according to the revised WHO criteria, in need of cytoreductive therapy, non-responders to therapeutic doses of HU monotherapy for at least 3 months.
Duration of the treatment: up to a maximum of 24 weeks of continual administration.
Primary objective: To evaluate the efficacy of ITF2357 in combination with HU in patients with JAK2^V617F positive Polycythemia Vera non-responders to therapeutic doses of HU in monotherapy.
Results: Patients response has been evaluated according to the european criteria [as reported in G. Barosi et al. Blood 113, 4829-4833 (2009)].

[3] = system: stem cells obtained from PV or ET patients; settings: sub-micromolar concentrations; cited from earlier work

O=C(CCBr)N1CCN(C(=O)CCBr)CC1 [Pipobroman]
side effects observed (drug tolerance) [1]: gastric pain and diarrhea

IFN-α
PRV-1 expression (PRV-1 gene expression): significantly reduces | efficacy of therapy compared with N-hydroxyurea treatment (PV): more effective

CCN(CC)Cc1ccc2cc(COC(=O)Nc3ccc(C(=O)NO)cc3)ccc2c1.Cl [ITF2357, Diethyl-[6-(4-hydroxycarbamoyl-phenylcarbamoyloxymethyl)-naphthalen-2-ylmethyl]-ammonium chloride]
control of the clinico-hematologic parameters (response by european criteria) ([2]; ITF2357 50 mg/day combined with N-hydroxyurea 500 mg/day, preliminary data, 6 patients refractory to previous HU monotherapy): significant control of the clinico-hematologic parameters | amelioration of the clinical parameters ([2]; in combination with N-hydroxyurea, compared to HU monotherapy, patients with myeloproliferative syndromes, preferably polycythemia vera): significant amelioration of the clinical parameters | clonogenic activity of stem cells [3]: inhibit the clonogenic activity

NC(=O)NO [N-hydroxyurea, reference compound]
PRV-1 gene expression (PRV-1 gene expression): increase | side effects observed (drug tolerance) [1]: leg ulcers and buccal aphthous ulcers
